# Measured values from ChEMBL document CHEMBL1201862, “PubChem BioAssay data set” (2004).
# The source made the active and inactive calls.
# Experiments:
# Genome polyprotein = Genome polyprotein (dengue virus type 2, UniProt P29990); test: flavivirus cap methylation enzyme inhibition – biochemical, confirmation dose response, primary screen (AID 588689); type: functional
# [1] = biological target: T1, Short transient receptor potential channel 4 (Mus musculus, UniProt Q9QUQ5); test: calcium entry via TRPC4 opening agents – cell-based, HEK293 TRPC4/mu-opioid, Fluo-4 calcium, dose response (AID 434937); type: functional
# T1 sequence (Q9QUQ5 whole entry): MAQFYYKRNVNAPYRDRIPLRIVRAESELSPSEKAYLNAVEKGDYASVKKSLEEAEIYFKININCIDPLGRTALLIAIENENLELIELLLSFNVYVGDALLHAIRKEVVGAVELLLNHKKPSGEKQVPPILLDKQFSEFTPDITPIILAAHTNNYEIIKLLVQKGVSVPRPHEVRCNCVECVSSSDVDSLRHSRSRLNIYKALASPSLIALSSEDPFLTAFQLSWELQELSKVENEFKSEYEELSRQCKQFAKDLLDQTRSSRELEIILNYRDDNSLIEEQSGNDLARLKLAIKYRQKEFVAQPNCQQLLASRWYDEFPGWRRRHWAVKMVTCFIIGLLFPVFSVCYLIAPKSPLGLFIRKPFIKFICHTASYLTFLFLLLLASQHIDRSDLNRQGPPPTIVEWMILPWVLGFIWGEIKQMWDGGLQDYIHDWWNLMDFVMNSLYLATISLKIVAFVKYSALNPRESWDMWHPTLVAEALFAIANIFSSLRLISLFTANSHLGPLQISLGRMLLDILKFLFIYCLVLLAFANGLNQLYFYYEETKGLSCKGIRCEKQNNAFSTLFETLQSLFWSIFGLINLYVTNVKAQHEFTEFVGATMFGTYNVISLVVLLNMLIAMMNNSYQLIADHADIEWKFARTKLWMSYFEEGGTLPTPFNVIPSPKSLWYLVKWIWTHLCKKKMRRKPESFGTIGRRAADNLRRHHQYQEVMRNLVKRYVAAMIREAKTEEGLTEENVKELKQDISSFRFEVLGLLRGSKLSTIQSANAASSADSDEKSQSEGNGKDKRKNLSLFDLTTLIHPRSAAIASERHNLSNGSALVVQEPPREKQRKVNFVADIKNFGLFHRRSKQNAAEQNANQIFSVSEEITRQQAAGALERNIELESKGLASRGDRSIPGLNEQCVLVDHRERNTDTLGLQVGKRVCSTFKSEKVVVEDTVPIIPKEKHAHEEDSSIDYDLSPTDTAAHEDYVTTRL
# [2] = biological target: T2, Rac GTPase-activating protein 1 (Homo sapiens, UniProt Q9H0H5); test: blockers of MgcRacGAP-driven Rac1 GTP hydrolysis – biochemical, ADP Hunter fluorescence, primary and confirmatory, confirmation (AID 624330); type: functional
# T2 sequence (Q9H0H5 whole entry): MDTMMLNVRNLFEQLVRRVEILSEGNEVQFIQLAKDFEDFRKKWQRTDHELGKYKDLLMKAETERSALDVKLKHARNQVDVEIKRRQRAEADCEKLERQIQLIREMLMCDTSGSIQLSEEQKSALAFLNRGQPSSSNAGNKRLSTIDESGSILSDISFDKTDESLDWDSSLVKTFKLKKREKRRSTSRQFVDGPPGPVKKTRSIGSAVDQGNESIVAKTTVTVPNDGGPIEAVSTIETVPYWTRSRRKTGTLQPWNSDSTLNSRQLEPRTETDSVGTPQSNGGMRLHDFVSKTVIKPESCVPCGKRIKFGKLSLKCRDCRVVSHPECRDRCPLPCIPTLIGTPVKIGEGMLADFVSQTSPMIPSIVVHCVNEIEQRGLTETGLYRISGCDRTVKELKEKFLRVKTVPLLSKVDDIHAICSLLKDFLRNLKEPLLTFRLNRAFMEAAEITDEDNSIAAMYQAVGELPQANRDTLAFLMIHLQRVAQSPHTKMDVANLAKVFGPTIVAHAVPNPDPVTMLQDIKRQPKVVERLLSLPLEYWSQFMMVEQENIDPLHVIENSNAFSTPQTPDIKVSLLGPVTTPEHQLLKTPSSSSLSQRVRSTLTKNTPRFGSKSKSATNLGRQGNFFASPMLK
# Leucine aminopeptidase = biological target: T3, Leucine aminopeptidase (Plasmodium falciparum 3D7, UniProt Q8IL11); test: P. falciparum M17LAP inhibitors, primary screen, biochemical, fluorogenic H-Leu-NHMec substrate, 1536-well (AID 1619); type: functional
# T3 sequence (Q8IL11 whole entry): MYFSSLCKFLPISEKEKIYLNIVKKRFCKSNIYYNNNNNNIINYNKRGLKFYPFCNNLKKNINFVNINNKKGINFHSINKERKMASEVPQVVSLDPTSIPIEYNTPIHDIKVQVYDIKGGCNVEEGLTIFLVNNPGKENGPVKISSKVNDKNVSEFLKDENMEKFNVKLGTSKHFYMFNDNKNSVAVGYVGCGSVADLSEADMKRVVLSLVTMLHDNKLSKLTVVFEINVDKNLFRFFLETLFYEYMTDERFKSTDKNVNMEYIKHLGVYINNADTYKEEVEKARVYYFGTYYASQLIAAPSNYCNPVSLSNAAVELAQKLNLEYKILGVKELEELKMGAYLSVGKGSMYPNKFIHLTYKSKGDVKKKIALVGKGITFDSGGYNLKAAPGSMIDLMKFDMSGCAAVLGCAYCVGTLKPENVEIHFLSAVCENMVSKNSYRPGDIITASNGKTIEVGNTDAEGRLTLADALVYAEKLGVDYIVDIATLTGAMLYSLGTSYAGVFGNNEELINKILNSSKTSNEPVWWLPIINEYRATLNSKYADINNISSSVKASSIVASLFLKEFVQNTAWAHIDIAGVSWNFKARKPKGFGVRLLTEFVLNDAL
# Large T antigen = Large T antigen (Simian virus 40, UniProt P03070); type: functional, Betapolyomavirus macacae;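 further: Confirmatory-stage PubChem screen for compounds that inhibit SV40 T antigen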
# Chain of Large T antigen (P03070 whole entry): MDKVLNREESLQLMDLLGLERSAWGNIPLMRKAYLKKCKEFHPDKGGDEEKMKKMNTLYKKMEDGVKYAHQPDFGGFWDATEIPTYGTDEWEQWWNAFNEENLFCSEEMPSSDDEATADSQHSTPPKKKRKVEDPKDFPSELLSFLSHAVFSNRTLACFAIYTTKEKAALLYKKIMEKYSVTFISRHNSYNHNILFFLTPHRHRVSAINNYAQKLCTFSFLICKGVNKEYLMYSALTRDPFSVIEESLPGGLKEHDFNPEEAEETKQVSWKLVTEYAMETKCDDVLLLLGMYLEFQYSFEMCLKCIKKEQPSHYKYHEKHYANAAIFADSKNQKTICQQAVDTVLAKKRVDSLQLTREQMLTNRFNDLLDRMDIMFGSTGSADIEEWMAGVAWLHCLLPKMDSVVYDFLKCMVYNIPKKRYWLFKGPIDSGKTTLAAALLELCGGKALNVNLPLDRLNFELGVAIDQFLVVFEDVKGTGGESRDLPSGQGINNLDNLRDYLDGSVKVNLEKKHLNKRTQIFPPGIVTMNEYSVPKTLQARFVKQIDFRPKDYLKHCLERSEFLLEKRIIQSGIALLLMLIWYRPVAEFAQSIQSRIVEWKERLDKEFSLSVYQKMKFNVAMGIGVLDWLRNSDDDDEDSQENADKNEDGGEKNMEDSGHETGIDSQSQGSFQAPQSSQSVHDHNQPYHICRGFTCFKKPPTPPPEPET
# [3] = biological target: DNA dC->dU-editing enzyme APOBEC-3A (Homo sapiens, UniProt P31941); test: A3A deaminase inhibition for selectivity – biochemical, dose response (AID 504722); type: functional
# Chain of DNA dC->dU-editing enzyme APOBEC-3A (P31941 whole entry): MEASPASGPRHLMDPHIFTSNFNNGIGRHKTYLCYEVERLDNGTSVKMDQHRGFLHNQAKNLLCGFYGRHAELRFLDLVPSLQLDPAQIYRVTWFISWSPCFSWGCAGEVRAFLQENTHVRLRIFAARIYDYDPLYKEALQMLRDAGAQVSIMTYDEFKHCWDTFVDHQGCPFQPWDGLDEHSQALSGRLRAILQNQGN
# [4] = biological target: DNA dC->dU-editing enzyme APOBEC-3G (Homo sapiens, UniProt Q9HC16); test: Dose Response confirmation of small molecule APOBEC3G DNA Deaminase Inhibitors via a fluorescence-based single-stranded DNA deaminase assay. [Related pubchem assays (depositor defined):AID493012, AID493028]; type: functional
# Chain of DNA dC->dU-editing enzyme APOBEC-3G (Q9HC16 whole entry): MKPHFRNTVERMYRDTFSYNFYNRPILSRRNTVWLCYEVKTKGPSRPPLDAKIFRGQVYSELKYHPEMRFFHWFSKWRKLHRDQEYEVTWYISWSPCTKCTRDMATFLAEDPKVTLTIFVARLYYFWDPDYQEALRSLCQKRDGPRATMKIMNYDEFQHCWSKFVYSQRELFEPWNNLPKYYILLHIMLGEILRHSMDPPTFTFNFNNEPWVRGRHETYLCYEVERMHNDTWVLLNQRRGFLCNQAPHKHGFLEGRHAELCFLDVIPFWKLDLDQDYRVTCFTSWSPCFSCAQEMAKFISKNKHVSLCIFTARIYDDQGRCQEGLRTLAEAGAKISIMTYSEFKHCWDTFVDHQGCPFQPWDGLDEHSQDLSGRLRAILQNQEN
# Aminopeptidase N = biological target: T4, Aminopeptidase N (Plasmodium falciparum FcB1/Columbia, UniProt O96935); test: malaria alanyl aminopeptidase activity blockers – biochemical, fluorogenic H-Leu-NHMec substrate, 1536-well (AID 1445); parameters: species or system Plasmodium falciparum 3D7, 3D7
# T4 sequence (O96935 whole entry): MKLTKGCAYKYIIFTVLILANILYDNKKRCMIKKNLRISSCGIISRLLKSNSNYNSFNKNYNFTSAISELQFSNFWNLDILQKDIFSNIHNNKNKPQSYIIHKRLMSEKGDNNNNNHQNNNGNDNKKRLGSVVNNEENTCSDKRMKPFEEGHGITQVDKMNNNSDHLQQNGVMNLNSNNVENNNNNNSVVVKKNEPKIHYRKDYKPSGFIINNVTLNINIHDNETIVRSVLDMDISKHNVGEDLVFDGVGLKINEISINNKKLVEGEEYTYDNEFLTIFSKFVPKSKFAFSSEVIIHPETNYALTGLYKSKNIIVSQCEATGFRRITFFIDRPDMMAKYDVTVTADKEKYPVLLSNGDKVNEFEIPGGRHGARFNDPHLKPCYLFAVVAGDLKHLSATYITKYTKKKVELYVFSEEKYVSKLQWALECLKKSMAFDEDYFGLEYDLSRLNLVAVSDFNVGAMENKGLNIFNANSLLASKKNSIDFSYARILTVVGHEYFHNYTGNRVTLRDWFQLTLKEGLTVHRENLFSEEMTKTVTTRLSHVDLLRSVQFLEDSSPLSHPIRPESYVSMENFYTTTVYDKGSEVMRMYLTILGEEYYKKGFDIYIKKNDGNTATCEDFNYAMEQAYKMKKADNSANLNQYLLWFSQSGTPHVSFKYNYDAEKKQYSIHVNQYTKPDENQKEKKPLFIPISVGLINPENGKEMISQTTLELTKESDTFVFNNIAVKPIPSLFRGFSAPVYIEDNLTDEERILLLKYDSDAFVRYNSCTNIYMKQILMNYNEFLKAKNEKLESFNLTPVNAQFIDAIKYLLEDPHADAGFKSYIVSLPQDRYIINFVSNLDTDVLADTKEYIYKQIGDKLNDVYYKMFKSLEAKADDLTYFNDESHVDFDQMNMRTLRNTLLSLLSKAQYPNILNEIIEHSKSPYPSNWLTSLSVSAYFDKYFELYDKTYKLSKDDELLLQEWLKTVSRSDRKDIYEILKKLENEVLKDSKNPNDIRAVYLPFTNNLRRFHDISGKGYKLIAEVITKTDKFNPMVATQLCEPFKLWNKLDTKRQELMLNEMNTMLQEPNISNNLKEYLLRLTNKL
# [5] = biological target: Beta-2 adrenergic receptor (Homo sapiens, UniProt P07550); test: ADRB2 activation measured by internalization – cell-based, FAP fluorogen, flow cytometry, cherry pick 1, dose response (AID 588763); type: functional
# Chain of Beta-2 adrenergic receptor (P07550 whole entry): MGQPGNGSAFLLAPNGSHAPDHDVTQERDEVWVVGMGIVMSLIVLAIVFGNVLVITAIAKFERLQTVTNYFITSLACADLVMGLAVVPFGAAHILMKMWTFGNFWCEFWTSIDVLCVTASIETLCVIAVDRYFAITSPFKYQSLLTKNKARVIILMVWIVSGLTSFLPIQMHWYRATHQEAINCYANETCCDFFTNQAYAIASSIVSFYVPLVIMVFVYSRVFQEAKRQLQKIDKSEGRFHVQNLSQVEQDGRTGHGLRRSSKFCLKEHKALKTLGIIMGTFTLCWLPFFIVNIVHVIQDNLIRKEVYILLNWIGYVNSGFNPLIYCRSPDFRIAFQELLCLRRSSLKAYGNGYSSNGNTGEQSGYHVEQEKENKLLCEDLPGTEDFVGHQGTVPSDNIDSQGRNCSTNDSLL
# [6] = HEK-293T viability loss after treatment – luminescence, T-cell screen hits, cytotoxicity control for TCR NF-kB inhibitor project, dose response (AID 489026); type: functional, cell-based;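 further: cells exposed to compound about 14 hours before the viability readout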
# [7] = Luminescence Cell-Based Dose Retest to Confirm Inhibitors of Cancer Stem Cells. [Related pubchem assays (depositor defined):AID2717, AID2721]; type: functional; conditions: Homo sapiens
# [8] = biological target: Heat shock protein HSP 90-alpha (Homo sapiens, UniProt P07900); type: functional, organism-based
# [9] = biological target: T5, Ubiquitin-conjugating enzyme E2 N (Homo sapiens, UniProt P61088); type: functional;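 further: Dose-response confirmation in a TR-FRET assay detecting UBC13-driven polyubiquitin chain formation, inhibition measured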
# T5 sequence (P61088 whole entry): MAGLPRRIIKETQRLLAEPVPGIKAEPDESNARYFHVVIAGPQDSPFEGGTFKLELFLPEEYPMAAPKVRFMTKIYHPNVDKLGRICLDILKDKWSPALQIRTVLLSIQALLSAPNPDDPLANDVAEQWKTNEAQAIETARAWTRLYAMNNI
# [10] = THP-1 cell cytotoxicity, dose response, cytotoxicity control for non-replicating M. tuberculosis project (AID 489025); type: functional
# [11] = Vero E6 cell cytotoxicity, dose response, cytotoxicity control for non-replicating M. tuberculosis project, secondary assay (AID 492998); type: functional, VeroE6; conditions: Vero C1008
# cells = type: functional
# [12] = microbe, parasite or virus in culture; type: functional; conditions: Mycobacterium tuberculosis
# Chain of Genome polyprotein (P29990 2492-3391 limits assumed): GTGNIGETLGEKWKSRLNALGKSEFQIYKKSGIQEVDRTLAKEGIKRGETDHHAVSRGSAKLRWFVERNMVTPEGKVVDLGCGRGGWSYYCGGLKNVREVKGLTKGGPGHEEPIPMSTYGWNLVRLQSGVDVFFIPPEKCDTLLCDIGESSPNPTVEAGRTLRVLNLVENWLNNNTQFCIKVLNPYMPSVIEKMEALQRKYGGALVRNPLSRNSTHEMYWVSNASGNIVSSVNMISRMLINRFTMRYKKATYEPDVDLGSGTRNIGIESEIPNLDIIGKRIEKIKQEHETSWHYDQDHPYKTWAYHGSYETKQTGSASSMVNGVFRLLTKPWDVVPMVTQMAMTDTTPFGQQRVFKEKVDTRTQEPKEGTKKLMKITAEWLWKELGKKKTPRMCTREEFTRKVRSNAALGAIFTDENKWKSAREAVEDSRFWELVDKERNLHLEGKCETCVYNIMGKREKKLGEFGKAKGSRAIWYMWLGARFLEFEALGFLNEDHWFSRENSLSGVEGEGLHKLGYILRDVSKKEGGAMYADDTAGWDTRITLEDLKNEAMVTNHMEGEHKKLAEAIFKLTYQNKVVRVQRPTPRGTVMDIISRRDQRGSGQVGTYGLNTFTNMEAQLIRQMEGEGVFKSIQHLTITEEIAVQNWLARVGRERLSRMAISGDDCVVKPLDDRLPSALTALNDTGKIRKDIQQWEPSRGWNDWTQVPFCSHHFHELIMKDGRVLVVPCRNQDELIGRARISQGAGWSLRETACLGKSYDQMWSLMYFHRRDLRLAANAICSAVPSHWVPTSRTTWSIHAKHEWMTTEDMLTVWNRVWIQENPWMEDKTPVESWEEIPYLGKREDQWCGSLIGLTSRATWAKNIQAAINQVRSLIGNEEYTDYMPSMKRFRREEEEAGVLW
structure (smiles),measurement,setting,value
CN(C)c1ccc(C=C2C(=O)NC(=O)NC2=O)cc1[N+](=O)[O-],IC50,Genome polyprotein,16.3 µM (active)
COC(=O)NCC(c1ccc2c(c1)OCO2)N1CCN(c2ccc(OC)cc2)CC1 (centres undefined),EC50,[1],0.944 µM (active)
same,IC50,[2],123 µM (active)
Oc1ccc(-c2n[nH]c(=S)[nH]2)cc1,IC50,Leucine aminopeptidase,20.6 µM (active)
same,IC50,Large T antigen,6.95 µM (active)
same,IC50,[3],> 100 µM (inactive)
same,IC50,[4],4.02 µM (active)
Cc1ccc2c(c1)c1nnc(SCC(=O)N3CCCc4ccccc43)nc1n2CC(=O)O,IC50,Aminopeptidase N,26.8 µM (active)
O=C(Nc1ccccc1)c1ccccc1CCc1ccccc1,EC50,[5],1.7 µM (active)
O=C(c1sc2ccccc2c1Cl)N(Cc1cccs1)C1CCS(=O)(=O)C1 (centres undefined),EC50,[1],1.88 µM (active)
O=C(NCc1cccs1)C1CCN(S(=O)(=O)c2cccs2)CC1,IC50,Aminopeptidase N,51.9 µM (active)
Cc1ccsc1/C=N/n1c(S)nnc1-c1ccncc1,IC50,[3],> 100 µM (inactive)
same,IC50,[4],2.45 µM (active)
COC(=O)c1[nH]c2ccc(F)cc2c1NS(=O)(=O)c1ccc(OC)cc1,IC50,[6],> 80 µM (inactive)
CN(CC(=O)Nc1cccc(F)c1)C(=O)c1cn(-c2ccccc2)nc1-c1ccc(Cl)cc1,AC50,[7],2.93 µM (active)
same,AC50,[8],8.31 µM (active)
CN(C)c1ccc(/C=N/n2c(S)nnc2-c2cccnc2)cc1,IC50,[3],> 100 µM (inactive)
same,IC50,[4],2.56 µM (active)
CSc1ccc(CNC(=O)c2ccc(NC(=O)C3=CSCCO3)cc2)cc1,EC50,[5],0.0482 µM (active)
Cc1cccc(C)c1NC(=O)COC(=O)c1ccc([N+](=O)[O-])o1,AC50,[8],2.57 µM (active)
O=C(OCc1cccc([N+](=O)[O-])c1)c1cccnc1Cl,IC50,[9],> 20 µM (inactive)
CC[C@@H](C)[C@@H]1CN([C@@H](C)CN2CCC[C@H]2CN2C(N)=NC[C@@H]2Cc2ccccc2)C(=N)N1CCCC1CCCC1,IC50,[9],> 20 µM (inactive)
CCOC(=O)c1sc2nc(CSc3ccccc3)nc(NCCN(C)C)c2c1C,CC50,[10],31.2 µM (active)
same,CC50,[11],17.8 µM (active)
same,IC50,cells,22.5 µM (active)
c1nc(NCCN2CCOCC2)c2sc3nc(N4CCOCC4)c4c(c3c2n1)CCC4,EC50,[5],3.34 µM (active)
Cc1ccc(C)c(-c2nnc(NC(=O)C3=COCCO3)o2)c1,CC50,[12],> 40 µM (active)
same,CC50,[11],19 µM (active)
same,IC50,cells,6.12 µM (active)
Cn1c(S)nnc1-c1cc2c(C(F)(F)F)nn(C)c2s1,IC50,[3],> 100 µM (inactive)
same,IC50,[4],1.84 µM (active)
C/C=C(\C)C(=O)N[C@@H](c1ccccc1)[C@@H](O)C(=O)O[C@H]1C[C@@]2(O)[C@@H](OC(=O)c3ccccc3)C3[C@](C)(C(=O)[C@H](O)C(=C1C)C2(C)C)[C@@H](O)C[C@H]1OC[C@@]31OC(C)=O (some centres undefined),IC50,[6],> 80 µM (inactive)
CCc1ccc2nc(SCC(=O)Nc3ccccc3N3CCOCC3)c(C#N)cc2c1,AC50,[7],2.39 µM (active)
same,IC50,[6],> 80 µM (inactive)
